Ten molecules from US10278975B2, “Serine/threonine kinase inhibitors” (GENENTECH, INC., priority 2013, dated 2019) can be followed below.

For the assay, the system named is PMA-stimulated P90RSK(Ser380) phosphorylation in HepG2 cells. Put plainly: Cellular P90RSK(Ser380) Phosphorylation Assay. Type of assay: cell-based. The settings on record: Homo sapiens, 1.5 hour compound incubation, PMA 100 ng/mL 30 min, normalized to GAPDH, read-out: P-P90RSK (S380) IC50. Here is the method: Cellular P90RSK(Ser380) Phosphorylation Assay
Inhibition of PMA-stimulated P90RSK(Ser380) phosphorylation was determined by the following in vitro cellular mechanistic assay, which comprises incubating cells with a compound for 1.5 hours and quantifying fluorescent pP90RSK(Ser380) signal on fixed cells and normalizing to GAPDH signal.
Materials and Methods: HepG2 cells were obtained from ATCC and grown in DMEM supplemented with 10% fetal bovine serum. Cells were plated in 96-well plates at 35,000 cells/well and allowed to attach overnight at 37° C./5% CO2. Diluted compounds were then added at a final concentration of 0.5% DMSO. After 1.5 hour compound incubation, cells were stimulated with the addition of PMA (phorbol 12-myristate 13-acetate) at a final concentration of 100 ng/mL; the PMA stimulation was a 30-minute incubation at 37° C./5% CO2. After the 30-minute PMA stimulation, cells were washed with PBS and fixed in 3.7% formaldehyde in PBS at room temperature for 15-20 minutes. This was followed by another wash in PBS and then permeabilization in 100% MeOH at room temperature for 10-15 minutes. Following the permeabilization incubation, cells were washed in PBS/0.05% Tween-20, followed by a block in Odyssey blocking buffer (LI-COR Biosciences) for at least 1 hour. Antibodies to phosphorylated P90RSK(Ser380) (Cell Signaling #9335, rabbit monoclonal) and GAPDH (Fitzgerald 10R-G109a, mouse monoclonal) were added to the cells and incubated overnight at 4° C. pP90RSK(Ser380) antibody was used at a 1:250 dilution; GAPDH was used at a 1:10,000 dilution. After washing with PBS/0.05% Tween-20, the cells were incubated with fluorescently-labeled secondary antibodies (Anti-rabbit-Alexa Flour680, Invitrogen Cat#A21109; Anti-mouse-IRDye800CW, Rockland Inc. Cat#610-131-121) for 1 hour. Both secondary antibodies were used at a 1:1000 dilution. Cells were then washed and analyzed for fluorescence at both wavelengths using the Odyssey Infrared Imaging System (LI-COR Biosciences). Phosphorylated P90RSK(Ser380) signal was normalized to GAPDH signal. Representative date is in TABLE II (infra).

On to `Cn1nccc1Nc1nccc(-c2cc3n4c(nnc4c2)[C@@H](Cc2ccccc2)CO3)n1` [(R) I-15, 4-(3-benzyl-3,4-dihydro-5-oxa-1,2,2a^1-triazaacenaphthylen-7-yl)-N-(1-methyl-1H-pyrazol-5-yl)pyrimidin-2-amine], for which the IC50 stood at 2.91 nM.

With `Cn1nccc1Nc1cc(-c2cc3n4c(nnc4c2)[C@@H](Cc2ccc(Cl)cc2)CO3)ccn1` [(R) I-48, 4-(3-(4-chlorobenzyl)-3,4-dihydro-5-oxa-1,2,2a^1-triazaacenaphthylen-7-yl)-N-(1-methyl-1H-pyrazol-5-yl)pyridin-2-amine], the IC50 was 1.73 nM.

Take `Cn1nccc1Nc1nccc(-c2cc3n4c(nnc4c2)[C@H](Oc2ccc(F)cc2)CCO3)n1` [(R) I-66, 4-(9-(4-fluorophenoxy)-8,9-dihydro-7H-6-oxa-1,2,2a^1-triazabenzo[cd]azulen-4-yl)-N-(1-methyl-1H-pyrazol-5-yl)pyrimidin-2-amine]: the IC50 stood at 1 nM.

With `Cn1nccc1Nc1nccc(-c2cc3n4c(nnc4c2)[C@@H](Cn2cc(C(F)(F)F)cn2)CCO3)n1` [(R) I-73, N-(1-methyl-1H-pyrazol-5-yl)-4-(9-((4-(trifluoromethyl)-1H-pyrazol-1-yl)methyl)-8,9-dihydro-7H-6-oxa-1,2,2a^1-triazabenzo[cd]azulen-4-yl)pyrimidin-2-amine], the IC50 came out at 4.47 nM.

Consider `Cn1nccc1Nc1cc(-c2cc3n4c(nnc4c2)[C@@H](Cc2ccccc2)CN3)ccn1` [(S) I-7, 4-(3-benzyl-4,5-dihydro-3H-1,2,2a^1,5-tetraazaacenaaphthylen-7-yl)-N-(1-methyl-1H-pyrazol-5-yl)pyridin-2-amine], for which the IC50 was 3.87 nM.

Consider `Cn1nccc1Nc1nccc(-c2cc3n4c(nnc4c2)[C@@H](Cc2ccc(F)cc2)CN3)n1` [(S) I-21, 4-(3-(4-fluorobenzyl)-4,5-dihydro-3H-1,2,2a^1,5-tetraazaacenaphthylen-7-yl)-N-(1-methyl-1H-pyrazol-5-yl)pyrimidin-2-amine], for which the IC50 was 4.32 nM.

For `CN1C(=O)C[C@H](Cc2ccc(Cl)cc2)c2nnc3cc(-c4ccnc(Nc5ccnn5C)n4)cc1n23` [(S) I-22, 9-(4-chlorobenzyl)-6-methyl-4-(2-((1-methyl-1H-pyrazol-5-yl)amino)pyrimidin-4-yl)-8,9-dihydro-1,2,2a^1,6-tetraazabenzo[cd]azulen-7(6H)-one], the IC50 stood at 1.41 nM.

Turning to `Cn1nccc1Nc1nccc(-c2cc3n4c(nnc4c2)[C@@H](COCc2ccccc2)CCO3)n1` [(S) I-29, 4-(9-((benzyloxy)methyl)-8,9-dihydro-7H-6-oxa-1,2,2a^1-triazabenzo[cd]azulen-4-yl)-N-(1-methyl-1H-pyrazol-5-yl)pyrimidin-2-amine], the IC50 was 7.94 nM.

As for `Cn1nccc1Nc1nccc(-c2cc3n4c(nnc4c2)[C@@H](Cc2ccc(Cl)cc2)CCO3)n1` [(S) I-36, 4-(9-(4-chlorobenzyl)-8,9-dihydro-7H-6-oxa-1,2,2a^1-triazabenzo[cd]azulen-4-yl)-N-(1-methyl-1H-pyrazol-5-yl)pyrimidin-2-amine], the IC50 was found to be 2.45 nM.

In the case of `CN1C(=O)N(Cc2ccccc2)c2nnc3cc(-c4ccnc(Nc5ccnn5C)n4)cc1n23` [Compound I-28, 3-benzyl-5-methyl-7-(2-((1-methyl-1H-pyrazol-5-yl)amino)pyrimidin-4-yl)-3H-1,2,2a^1,3,5-pentaazaacenaphthylen-4(5H)-one], the IC50 was found to be 5.05 nM.
